Reference: ChEMBL document CHEMBL3507680, “University of Dundee, Gates Library screen for HepG2 cell viability”

Experiment: Human HepG2 cell viability assay in 384 well format
Format: toxicity, cell-based
Set-up: dose 125 nL, time 70.5 hour; concentration not given beside the values
Conditions: HepG2 cells, read-out: Inhibition

Row | Structure (SMILES) | cytotoxicity at 70.5 h [%]
1 | O=C(NS(=O)(=O)c1cccnc1)C1CC(c2ccccc2)=NO1 (centres undefined) | -4.92
2 | CCOC(C)C(=O)Nc1ccnn1-c1ccccc1C (centres undefined) | 7.99
3 | O=C(Nc1cnn(CC(F)F)c1)c1cccc(-n2cnnn2)c1 | -1.49
4 | OCC(CO)Nc1nc(C(F)F)nc2ccccc12 | -3.24
5 | Cc1[nH]nc2ncc(C(=O)N3CCCC3c3noc(C(C)C)n3)cc12 (centres undefined) | -19.5
6 | O=C(O)c1ccc(S(=O)(=O)Nc2cnn(CC(F)(F)F)c2)cc1 | 3.28
7 | Cc1ccc(OCCCC(=O)Nc2nonc2C)cc1C | 12
8 | COc1ccc(C2(NC(=O)c3ccc(=O)n(C)n3)CCCC2)cc1 | -12.4
9 | CCCn1nc(C(=O)NC2(c3ccc(Cl)cc3)CCCC2)ccc1=O | -7.76
10 | N#Cc1cccc(S(=O)(=O)NC(=O)C2CC(c3ccccc3)=NO2)c1 (centres undefined) | -18.7
11 | Cc1nc(CNc2ccccc2CCC(F)(F)F)cs1 | -9.96
12 | O=C(c1cc(C2CCCC2)no1)N1CC(O)C1 | -3.97
13 | O=C(CNC(=O)C1(c2ccc(F)cc2F)CCC1)Nc1ccccn1 | -3.32
14 | O=C(CNC(=O)C1(c2ccc(F)cc2F)CCC1)Nc1cccnc1 | 31.2
15 | CC(C)n1nnnc1-c1ccc(NC(=O)CC(F)(F)F)cc1F | -1.35
16 | COCc1ccccc1NCc1csc(NC(C)=O)n1 | -7.46
17 | Cc1cc(C)n(CCCNC(=O)C2CCCO2)n1 (centres undefined) | 2.61
18 | O=C1CN(Cc2occc2C(=O)NCCc2ccc(F)cc2)CCN1 | 2.4
19 | CC(C)n1nnnc1-c1ccc(NC(=O)N(C)CCN(C)C)cc1F | -7.88
20 | Cn1cc(C(O)CNC(=O)c2sccc2OC(F)F)cn1 (centres undefined) | -4.33

Row | Structure (SMILES) | cytotoxicity at 70.5 h [%]
21 | Cc1cccc(OCC(=O)NS(=O)(=O)Cc2ccccc2)c1 | -5.52
22 | O=C(COc1ccccc1)NS(=O)(=O)Cc1ccccc1 | -1.17
23 | CC(=O)c1cccc(OCCCC(=O)N(C)C2CCN(C)CC2)c1 | -7.34
24 | Cc1nc(C)n(CC2CCCN2Cc2ccc(F)cc2C#N)n1 (centres undefined) | 5.18
25 | O=C(Nc1ccc(N2CCCCC2)cn1)C1CCCN1C(=O)C1CC1 (centres undefined) | -4.38
26 | CC(C)CN(C(=O)COc1ccc(C(N)=O)cc1)C1CCN(C)CC1 | -4.39
27 | CCC(CC)(CNC(=O)OC(C)(C)C)NC(=O)c1cnccn1 | 0.78
28 | Cc1csc(-c2ccc(NC(=O)N3CCOCC3)cc2)n1 | -0.264
29 | OCCN1CCN(CC2(O)CCCCC2)CC1 | 0.0783
30 | Cc1ccccc1C(O)CNC(=O)Cc1ccc(F)cc1 (centres undefined) | -2.44
31 | Cc1cc(OC(F)F)c(C(=O)NCC(O)c2cccc(F)c2)s1 (centres undefined) | 6.81
32 | O=C1CC(C(=O)Nc2nnc(-c3cccs3)[nH]2)c2ccccc2N1 (centres undefined) | -2.83
33 | CC(C)(CNC(=O)C1(c2ccccc2)CCOCC1)C(=O)O | -1.55
34 | Cc1cccc(N2CCC(NC(C)c3cccs3)CC2)n1 (centres undefined) | 10.3
35 | O=C(O)CCNC(=O)C1(c2cccc(Br)c2)CCOCC1 | -0.861
36 | OCCN1CCN(Cc2cc(Cl)cc3cccnc23)CC1 | 4.47
37 | Cc1noc(CN(Cc2ccco2)Cc2cccc3c2OCO3)n1 | -1.63
38 | Cc1noc(CN(Cc2ccc3c(c2)OCCO3)Cc2ccco2)n1 | -3.69
39 | Cc1ncc2c(n1)CN(CC1CCCCO1)CC2 (centres undefined) | 5.6
40 | Clc1cc(CN2CCCN3CCCC3C2)c2ncccc2c1 (centres undefined) | -2.91

Row | Structure (SMILES) | cytotoxicity at 70.5 h [%]
41 | CN1CCOC(CNCc2nc(-c3ccoc3)no2)C1 (centres undefined) | -6.11
42 | Cc1cc(C2CCCN(C(=O)COc3cccc(F)c3)C2)n[nH]1 (centres undefined) | -5.26
43 | CCOC(=O)N(C)C1CCN(Cc2csc(C)n2)CC1 | 2.22
44 | CCN(C(=O)CN1CCCC1c1c(C)nn(C)c1OC)C1CC1 (centres undefined) | -6.09
45 | CCc1nccn1CC1CCCN1S(=O)(=O)N1CCCOCC1 (centres undefined) | 23.7
46 | CCCn1nnnc1COC(=O)C1Cc2cc(Cl)ccc2O1 (centres undefined) | -9.18
47 | Cc1ccccc1C(=O)NCC(=O)NCc1ccccn1 | 15.5
48 | COc1cccc(CN(C)Cc2c(C)noc2C)c1OC | -3.33
49 | O=C1CN(C(=O)c2cc3ccc(Br)cc3[nH]2)CCN1 | -9.95
50 | COc1cccc(CCC(=O)Nc2ccn(C)n2)c1OC | -10
51 | CCOc1ccc2cc(C(=O)NCCC(=O)N(C)C)[nH]c2c1 | -7.75
52 | Cc1cc(CNCC2CNc3ccnn3C2)no1 (centres undefined) | 19.3
53 | CNC(=O)C1CNCCN1C(=O)c1ccc(C(F)(F)F)nc1C (centres undefined) | -5.69
54 | CN1CCCc2cc(-c3cncn3CC(=O)NC(C)(C)C)ccc21 | -16.5
55 | CCOC(=O)c1n[nH]cc1-c1cncn1CCn1nc(C)c(C)c1C | -6.65
56 | CCN1c2ccc(-c3cncn3CC(=O)NC(C)(C)C)cc2CC1C (centres undefined) | -7.81
57 | COc1cc(Br)c(CNC2CCCNC2=O)cc1OC (centres undefined) | -0.0651
58 | C=C(C)CN1CCN(Cc2cnc(-c3ccccc3C)nc2)CC1 | 23.9
59 | C=C(C)CN1CCN(Cc2cnc(-c3ccc(OC)cc3)nc2)CC1 | 9.18
